Experimental data: patent US20260207765A1, “COVALENTLY-MODIFIED STEROID ACID-PEPTIDES HAVING ENHANCED STABILITY AND/OR BIOLOGICAL ACTIVITY” (priority 2022, published 2026)
Positions of bridges follow the written chain, without caps; N, C: chain ends. Residues, ends and D or L forms follow the SMILES beside them. Chains are numbered I, II in the order given. *: point of attachment. Chenodeoxycholyl = C[C@H](CCC(=O)*)[C@H]1CC[C@H]2[C@@H]3[C@H](O)C[C@@H]4C[C@H](O)CC[C@]4(C)[C@H]3CC[C@]12C

Assays:
[1] = tested on: EL4 lymphoma cells; experiment: Apoptosis analysis / kill curve by flow cytometry (Annexin-V, PI); assay type: cell-based, mouse
Description: (§1) Apoptosis analysis was conducted by flow-cytometry. Briefly, target cells were first treated then washed. Treated cells were then re-suspended in Annexin-V staining buffer prior to staining with Annexin-V and propidium iodine (PI). Fifteen minutes later, cells were washed prior to analysis using BD FACS™ Diva on CANTOII™.

[2] = tested on: 4T1 breast cancer cells; experiment: Apoptosis analysis by flow cytometry; assay type: cell-based; details: 95 and 190 μM
Description: as §1

[3] = tested on: B16 melanoma cells; experiment: Apoptosis analysis by flow cytometry; assay type: cell-based; details: 95 and 190 μM
Description: as §1

[4] = tested on: CT-26 colon carcinoma cells; experiment: Apoptosis analysis by flow cytometry; assay type: cell-based; details: 95 and 190 μM
Description: as §1

[5] = tested on: E0771 breast cancer cells; experiment: Apoptosis analysis by flow cytometry; assay type: cell-based; details: 95 and 190 μM
Description: as §1

[6] = tested on: JIMT-1 breast cancer cells; experiment: Cytotoxicity of steroid acid-peptide conjugates in JIMT-1 cells; assay type: cell-based; details: 6.4 μM
Description: as §1
50 mg of CDCA-C-SV40 monomers (or other steroid acid-peptide monomers) were resuspended in 200-500 μL of DMSO. 10 eq of N,N-Diisopropylethylamine (DIPEA) was added to the mixture and incubated in a thermomixer at 37° C. with agitation (1000 rpm) overnight, enabling dimerization of the monomers via their N-terminal cysteine thiol groups to produce (CDCA-C-SV40)2 or other dimers. The samples were then analyzed by UPLC-MS to evaluate dimer formation efficiency. Cell toxicity was evaluated via a Cell Toxicity assay (PrestoBlue™).

[7] = Stability testing (impurities by HPLC); assay type: physicochemical
Description: GMP synthesis of the CDCA-C-SV40 monomer yielded a white powder and the results of initial stability testing is summarized below:
As shown above, two main impurities were detected by HPLC relating to the reactivity of the free thiol group of the CDCA-C-SV40 monomer, namely impurities resulting from oxidation of the thiol group (Impurity A) and the formation an intermolecular disulfide bond via the thiol groups of two CDCA-C-SV40 monomers, producing a (CDCA-C-SV40)2 dimer (Impurity B).
To attempt to improve stability, the synthesis protocol of CDCA-C-SV40 was modified to produce the conjugate directly in its dimerized form (Impurity B). […] At 25° C., total impurities rose only slightly from 1.6% at Day 0 to 2.1% after 3 months. At 40° C., total impurities rose from 1.6% at Day 0 to 1.7% after 5 days, 2.4% after 10 days, and to 3.7% after 30 days.

[8] = tested on: murine MSCs; experiment: Maximum tolerated dose on murine MSCs over 24 h; assay type: cell-based; details: 50 μM
[9] = tested on: wild-type MSC and B3Z reporter system; experiment: Antigen cross-presentation, wild-type MSC and B3Z reporter system; details: 100 μM

In the case of CC(C)[C@H](NC(=O)[C@H](CCCCN)NC(=O)[C@H](CCCNC(=N)N)NC(=O)[C@H](CCCCN)NC(=O)[C@H](CCCCN)NC(=O)[C@H](CCCCN)NC(=O)[C@@H]1CCCN1C(=O)CNC(=O)[C@H](Cc1ccc(O)cc1)NC(=O)CNC(=O)[C@H](CSSC[C@H](NC(=O)CC[C@@H](C)[C@H]1CC[C@H]2[C@@H]3[C@H](O)C[C@@H]4C[C@H](O)CC[C@]4(C)[C@H]3CC[C@]12C)C(=O)NCC(=O)N[C@@H](Cc1ccc(O)cc1)C(=O)NCC(=O)N1CCC[C@H]1C(=O)N[C@@H](CCCCN)C(=O)N[C@@H](CCCCN)C(=O)N[C@@H](CCCCN)C(=O)N[C@@H](CCCNC(=N)N)C(=O)N[C@@H](CCCCN)C(=O)N[C@H](C(=O)NCC(=O)NCC(=O)O)C(C)C)NC(=O)CC[C@@H](C)[C@H]1CC[C@H]2[C@@H]3[C@H](O)C[C@@H]4C[C@H](O)CC[C@]4(C)[C@H]3CC[C@]12C)C(=O)NCC(=O)NCC(=O)O [(CDCA-C-SV40)2] (I: Chenodeoxycholyl-CGYGPKKKRKVGG-OH / II: Chenodeoxycholyl-CGYGPKKKRKVGG-OH; disulfide I:1-II:1), the cytotoxicity ([1]; 95 and 190 μM) is reported as “potent cytotoxicity”, the EC50 ([1]; EL4 lymphoma cells, flow cytometry, read-out: EC50 (cell death / kill curve)) is reported as 3.2 µM and the cytotoxicity [2] is reported as “potent cytotoxicity”. For the same compound, the cytotoxicity [3] was “potent cytotoxicity”, the cytotoxicity [4] was “potent cytotoxicity” and the cytotoxicity [5] was “potent cytotoxicity”. For the same compound, the cytotoxicity [6] was “potent cytotoxicity”, the “stability of dimer compared with corresponding monomer” value [7] was “markedly higher stability” and the MSCs growth [8] was “diminished but was still present”. The “cell death of MSCs” value [9] was “significant cell death”.
